# Experimental data from patent US5731326A, “PDGF antagonists II” (ZymoGenetics, Inc., priority 1996, dated 1998).
# Columns and labels:
# Assay type in all cases: cell-based
# EGF = assay: SRE-luciferase antagonist assay, induction by EGF; settings: SWISS3T3 cells, 5 hours
# From the text: (§1) Initial characterization of NNC92-0270 as a non-peptide PDGF antagonist was made possible through an SRE-Luciferase high through-put assay system which involves selection of substances that are able to block expression of a serum response element (SRE)-luciferase reporter gene expressed in SWISS3T3 cells. […] The degree of antagonist specificity can be determined by comparing the resultant signal for the three growth factors (PDGF, bFGF and EGF). […]
# (§2) Following induction, luciferase activity was measured using a Promega luciferase assay kit (E1500; Promega Corp., Madison, Wis.) according to the assay kit protocol. […] The amount of luminescence (relative light units, RLU) was determined following a 1 second mix and a 1-3 integration of signal. Basal (uninduced) luciferase signal was subtracted from all measurements, and the luciferase signal induced by test samples was expressed as a percentage of the signal in the control. […]
# PMA = assay: SRE-luciferase antagonist assay, induction by PMA; settings: Swiss-3T3, SWISS3T3 cells, 5 hours, approximate
# bFGF = assay: SRE-luciferase antagonist assay, induction by bFGF; settings: Swiss-3T3, SWISS3T3 cells, 5 hours, approximate
# From the text: as §1, §2
# [1] = tested on: baboon smooth muscle cells; assay: Wash-out study of PDGF-BB mitogenic activity on baboon smooth muscle cells; settings: mean +/- SD
# Experimental: NNC92-0270 was analyzed for prolonged inhibitory effect on PDGF-BB mitogenic activity on baboon smooth muscle cells in a wash-out experiment. Baboon SMCs were plated at 20,000 cells per well in a 24-well culture dish and grown for 2 days. The culture media was removed and replaced with Mito Media (Table 5) to allow the cells to become quiescent. The experiment was set up such that cells were treated with NNC92-0270 or vehicle control (0.5% DMSO) for either 24 hours prior to the addition of PDGF-BB, or sequentially with the addition of PDGF-BB. Those cells initially treated with NNC92-0270 or control vehicle for 24 hours, were washed with Mito Media to remove the test compound and then incubated with PDGF-BB (1 ng/ml) for an additional 24 hours. A second set of cells was treated with NNC92-0270 or vehicle control simultaneously with PDGF-BB for 24 hours. The cells were pulse labeled for 4 hours with [^3 H] thymidine (1 μCi/ml final) harvested with trypsin and counted in a Wallac Betaplate counter to determine CPM for [^3 H] thymidine incorporation.
# Acetic acid (10 mM) was used as the PDGF-BB vehicle control and 0.5% DMSO was used as the test compound control.
# PDGF = assay: SRE-luciferase antagonist assay, induction by PDGF; settings: Swiss-3T3, SWISS3T3 cells, 5 hours, approximate
# From the text: as §1, §2
smiles,measurement,setting,value
O=C(NN1CCCCC1)NS(=O)(=O)c1ccc(CCNC(=O)c2[nH]c3ccccc3c2OCc2ccccc2)cc1 [NNC92-0270],"Induction of SRE-luciferase, EGF IC50",EGF,No activity
same,IC50,PMA,> 100 µM
same,IC50,bFGF,> 100 µM
same,[3H] Thymidine Incorporation (cpm),"[1]; T = -24 hrs 0.5% DMSO, T = 0 hrs compound simultaneously with PDGF-BB (1 ng/ml)",678 +/- 68 cpm
same,[3H] Thymidine Incorporation (cpm),"[1]; T = -24 hrs compound, washed out, T = 0 hrs PDGF-BB (1 ng/ml)",5735 +/- 474 cpm
same,[3H] Thymidine Incorporation (cpm),"[1]; T = -24 hrs compound, washed out, T = 0 hrs acetic acid (no PDGF-BB)",237 +/- 36 cpm
same,IC50,PDGF,13 µM
